Results reported in PubChem BioAssay (NCI).
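A five-concentration, 48-hour dose response in 96-well plates underlies each endpoint, interpolated linearly between surrounding concentrations. Abbreviation: GI50, concentration required for 50% inhibition of growth. At the TGI there is no net growth.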

Columns and labels:
Assay in all cases: DTP human tumour cell line panel, 48 h
HOP-92 NSCLC = tested on: HOP-92 NSCLC
HOP-62 NSCLC = tested on: HOP-62 NSCLC
UACC-257 melanoma = tested on: UACC-257 melanoma
RPMI-8226 leukemia = tested on: RPMI-8226 leukemia
SK-MEL-5 melanoma = tested on: SK-MEL-5 melanoma
MDA-N = tested on: MDA-N
HCT-116 colon = tested on: HCT-116 colon
OVCAR-8 ovarian = tested on: OVCAR-8 ovarian
M14 melanoma = tested on: M14 melanoma
HT29 colon = tested on: HT29 colon
OVCAR-4 ovarian = tested on: OVCAR-4 ovarian
NCI/ADR-RES ovarian = tested on: NCI/ADR-RES ovarian
UO-31 renal = tested on: UO-31 renal
IGROV1 ovarian = tested on: IGROV1 ovarian
BT-549 breast = tested on: BT-549 breast
RXF 393 renal = tested on: RXF 393 renal
EKVX NSCLC = tested on: EKVX NSCLC
NCI-H226 lung = tested on: NCI-H226 lung
KM12 colon = tested on: KM12 colon
SK-MEL-2 melanoma = tested on: SK-MEL-2 melanoma
SF-268 CNS = tested on: SF-268 CNS
T-47D breast = tested on: T-47D breast
A498 renal = tested on: A498 renal
HCC-2998 colon = tested on: HCC-2998 colon
ACHN renal = tested on: ACHN renal
TK-10 renal = tested on: TK-10 renal
SNB-75 CNS = tested on: SNB-75 CNS
MCF7 breast = tested on: MCF7 breast
MDA-MB-231 breast = tested on: MDA-MB-231 breast
HL-60(TB) leukemia = tested on: HL-60(TB) leukemia
U251 CNS = tested on: U251 CNS
SW-620 colon = tested on: SW-620 colon
HCT-15 colon = tested on: HCT-15 colon
MDA-MB-435 = tested on: MDA-MB-435
OVCAR-5 ovarian = tested on: OVCAR-5 ovarian
786-0 renal = tested on: 786-0 renal
HS 578T breast = tested on: HS 578T breast
SF-539 CNS = tested on: SF-539 CNS
SK-MEL-28 melanoma = tested on: SK-MEL-28 melanoma
COLO 205 colon = tested on: COLO 205 colon
UACC-62 melanoma = tested on: UACC-62 melanoma
NCI-H460 lung = tested on: NCI-H460 lung
SN12C renal = tested on: SN12C renal
K-562 leukemia = tested on: K-562 leukemia
DU-145 prostate = tested on: DU-145 prostate
OVCAR-3 ovarian = tested on: OVCAR-3 ovarian
SF-295 CNS = tested on: SF-295 CNS
NCI-H23 lung = tested on: NCI-H23 lung
SK-OV-3 ovarian = tested on: SK-OV-3 ovarian
MOLT-4 leukemia = tested on: MOLT-4 leukemia
SNB-19 CNS = tested on: SNB-19 CNS
A549 NSCLC = tested on: A549 NSCLC
CAKI-1 renal = tested on: CAKI-1 renal
PC-3 prostate = tested on: PC-3 prostate
CCRF-CEM leukemia = tested on: CCRF-CEM leukemia
LOX IMVI melanoma = tested on: LOX IMVI melanoma
MALME-3M melanoma = tested on: MALME-3M melanoma

## COc1ccccc1N1C(=O)CSC1c1c[nH]c2ccccc12 (configuration not stated)
HOP-92 NSCLC
  TGI: > 100 µM
HOP-62 NSCLC
  TGI: > 100 µM
UACC-257 melanoma
  TGI: > 100 µM
RPMI-8226 leukemia
  TGI: > 100 µM
SK-MEL-5 melanoma
  TGI: > 100 µM
MDA-N
  TGI: > 100 µM
HCT-116 colon
  TGI: > 100 µM
OVCAR-8 ovarian
  TGI: > 100 µM
M14 melanoma
  TGI: > 100 µM
HT29 colon
  TGI: > 100 µM
OVCAR-4 ovarian
  TGI: > 100 µM
NCI/ADR-RES ovarian
  TGI: > 100 µM
UO-31 renal
  TGI: > 100 µM
IGROV1 ovarian
  TGI: > 100 µM
BT-549 breast
  TGI: > 100 µM
RXF 393 renal
  TGI: > 100 µM
EKVX NSCLC
  TGI: > 100 µM
NCI-H226 lung
  TGI: > 100 µM
KM12 colon
  TGI: > 100 µM
SK-MEL-2 melanoma
  TGI: > 100 µM
SF-268 CNS
  TGI: > 100 µM
T-47D breast
  TGI: > 100 µM
A498 renal
  TGI: > 100 µM
HCC-2998 colon
  TGI: > 100 µM
ACHN renal
  TGI: > 100 µM
TK-10 renal
  TGI: > 100 µM
SNB-75 CNS
  TGI: > 100 µM
MCF7 breast
  TGI: > 100 µM
MDA-MB-231 breast
  TGI: > 100 µM
HL-60(TB) leukemia
  TGI: > 100 µM
U251 CNS
  TGI: > 100 µM
SW-620 colon
  TGI: > 100 µM
HCT-15 colon
  TGI: > 100 µM
MDA-MB-435
  TGI: > 100 µM
OVCAR-5 ovarian
  TGI: > 100 µM
786-0 renal
  TGI: > 100 µM
HS 578T breast
  TGI: > 100 µM
SF-539 CNS
  TGI: > 100 µM
SK-MEL-28 melanoma
  TGI: > 100 µM
COLO 205 colon
  TGI: > 100 µM
UACC-62 melanoma
  TGI: > 100 µM
NCI-H460 lung
  TGI: > 100 µM
SN12C renal
  TGI: > 100 µM
K-562 leukemia
  TGI: > 100 µM
DU-145 prostate
  TGI: > 100 µM
OVCAR-3 ovarian
  TGI: > 100 µM
SF-295 CNS
  TGI: > 100 µM
NCI-H23 lung
  TGI: > 100 µM
SK-OV-3 ovarian
  TGI: > 100 µM
MOLT-4 leukemia
  TGI: > 100 µM
SNB-19 CNS
  TGI: > 100 µM
A549 NSCLC
  TGI: > 100 µM

## S=C(S)NCCNC(=S)S.[Cu+2]
HOP-92 NSCLC
  GI50: > 100 µM
  TGI: > 100 µM
HOP-62 NSCLC
  GI50: 68.6 µM
  TGI: > 100 µM
UACC-257 melanoma
  GI50: > 100 µM
  TGI: > 100 µM
RPMI-8226 leukemia
  GI50: > 100 µM
  TGI: > 100 µM
SK-MEL-5 melanoma
  GI50: 25.8 µM
  TGI: 58.5 µM
MDA-N
  GI50: 25.7 µM
  TGI: 69.5 µM
HCT-116 colon
  GI50: > 100 µM
  TGI: > 100 µM
OVCAR-8 ovarian
  GI50: > 100 µM
  TGI: > 100 µM
M14 melanoma
  GI50: > 100 µM
  TGI: > 100 µM
HT29 colon
  GI50: > 100 µM
  TGI: > 100 µM
OVCAR-4 ovarian
  GI50: 36.1 µM
  TGI: > 100 µM
NCI/ADR-RES ovarian
  GI50: > 100 µM
  TGI: > 100 µM
UO-31 renal
  GI50: > 100 µM
  TGI: > 100 µM
IGROV1 ovarian
  GI50: 93.2 µM
  TGI: > 100 µM
CAKI-1 renal
  GI50: > 100 µM
  TGI: > 100 µM
RXF 393 renal
  GI50: 36.1 µM
  TGI: > 100 µM
EKVX NSCLC
  GI50: 70.1 µM
  TGI: > 100 µM
NCI-H226 lung
  GI50: > 100 µM
  TGI: > 100 µM
KM12 colon
  GI50: > 100 µM
  TGI: > 100 µM
SF-268 CNS
  GI50: > 100 µM
  TGI: > 100 µM
T-47D breast
  GI50: > 100 µM
  TGI: > 100 µM
PC-3 prostate
  GI50: > 100 µM
  TGI: > 100 µM
A498 renal
  GI50: 57.6 µM
  TGI: > 100 µM
CCRF-CEM leukemia
  GI50: > 100 µM
  TGI: > 100 µM
HCC-2998 colon
  GI50: 59.3 µM
  TGI: > 100 µM
ACHN renal
  GI50: > 100 µM
  TGI: > 100 µM
TK-10 renal
  GI50: > 100 µM
  TGI: > 100 µM
LOX IMVI melanoma
  GI50: 31.8 µM
  TGI: > 100 µM
SNB-75 CNS
  GI50: > 100 µM
  TGI: > 100 µM
MCF7 breast
  GI50: 27.4 µM
  TGI: 78.2 µM
MDA-MB-231 breast
  GI50: > 100 µM
  TGI: > 100 µM
HL-60(TB) leukemia
  GI50: > 100 µM
  TGI: > 100 µM
U251 CNS
  GI50: > 100 µM
  TGI: > 100 µM
MALME-3M melanoma
  GI50: > 100 µM
  TGI: > 100 µM
SW-620 colon
  GI50: 88.6 µM
  TGI: > 100 µM
HCT-15 colon
  GI50: 51.6 µM
  TGI: > 100 µM
MDA-MB-435
  GI50: 29.7 µM
  TGI: 79.2 µM
OVCAR-5 ovarian
  GI50: 52.4 µM
  TGI: > 100 µM
786-0 renal
  GI50: 63.2 µM
  TGI: > 100 µM
HS 578T breast
  GI50: > 100 µM
  TGI: > 100 µM
SF-539 CNS
  GI50: > 100 µM
  TGI: > 100 µM
SK-MEL-28 melanoma
  GI50: > 100 µM
  TGI: > 100 µM
COLO 205 colon
  GI50: > 100 µM
  TGI: > 100 µM
UACC-62 melanoma
  GI50: 33.9 µM
  TGI: > 100 µM
NCI-H460 lung
  GI50: 29.7 µM
  TGI: 89.3 µM
SN12C renal
  GI50: > 100 µM
  TGI: > 100 µM
K-562 leukemia
  GI50: > 100 µM
  TGI: > 100 µM
DU-145 prostate
  GI50: > 100 µM
  TGI: > 100 µM
OVCAR-3 ovarian
  GI50: > 100 µM
  TGI: > 100 µM
SF-295 CNS
  GI50: > 100 µM
  TGI: > 100 µM
NCI-H23 lung
  GI50: > 100 µM
  TGI: > 100 µM
SK-OV-3 ovarian
  GI50: 8.24 µM
  TGI: 23.1 µM
MOLT-4 leukemia
  GI50: > 100 µM
  TGI: > 100 µM
SNB-19 CNS
  GI50: > 100 µM
  TGI: > 100 µM
A549 NSCLC
  GI50: 56.6 µM
  TGI: > 100 µM
